Some test systems named below: NCI-H522 lung; DU-145 prostate; MDA-MB-231 breast; UACC-62 melanoma; ACHN renal; SK-MEL-5 melanoma; NCI-H226 lung; A549 NSCLC; OVCAR-3 ovarian; T-47D breast.
Holding throughout (assay): growth of human tumour cells (NCI), 48 h

Consider twelve compounds from PubChem BioAssay (NCI).

Where “and” joins values, the source holds several entries; their conditions need not be identical. Identical values can stand only once.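 All cell lines were grown in 96-well plates and treated with compound for 48 hours. GI50 is the concentration that inhibits growth by half. Definition used: TGI = concentration required for complete inhibition of growth.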 A value given as a limit tells only on which side of the number the result lay.

As for `COc1ccc(/C(=N\O)c2cc(C)c(OC)c(C)c2)cc1O`, the GI50 is under 10 nM in the test with NCI-H522 lung; 34.9 nM in the test with DU-145 prostate; 43.8 nM in the test with MDA-MB-231 breast; under 0.01 µM in the test with UACC-62 melanoma; under 0.01 µM in the test on ACHN renal; under 0.01 µM in the test with SK-MEL-5 melanoma. Moreover, the GI50 is 11.2 µM with NCI-H226 lung, 39 nM in the test with A549 NSCLC and under 10 nM in the test with OVCAR-3 ovarian. Further, the TGI is 0.0101 µM in the test on NCI-H522 lung; over 100 µM in the test with DU-145 prostate; over 100000 nM in the test with MDA-MB-231 breast; over 100 µM with UACC-62 melanoma; over 100 µM with ACHN renal; 0.068 µM in the test on SK-MEL-5 melanoma. The TGI in the test with NCI-H226 lung, in the test on A549 NSCLC and in the test on OVCAR-3 ovarian was over 100 µM in each case.

For the compound `c1ccc2cc3[s+]snc3cc2c1`, the TGI in the test on NCI-H522 lung, in the test with UACC-62 melanoma, with ACHN renal, with SK-MEL-5 melanoma, in the test with NCI-H226 lung and in the test on A549 NSCLC was over 100 µM throughout. Besides, the TGI in the test on OVCAR-3 ovarian is over 100 µM.

`O=C(Nc1ccc2[nH]c(=S)sc2c1)Nc1ccccc1F`: the GI50 in the test with T-47D breast is 4.47 µM; with NCI-H522 lung, 10300 nM; in the test on DU-145 prostate it was 59400 nM; with MDA-MB-231 breast it was 23100 nM; in the test with UACC-62 melanoma, 18.5 µM; with ACHN renal it was 37.4 µM. The GI50 in the test on SK-MEL-5 melanoma is 17.3 µM; in the test on A549 NSCLC, 51200 nM; in the test on OVCAR-3 ovarian it was 34800 nM. Moreover, the TGI in the test with T-47D breast is 33.4 µM; in the test with NCI-H522 lung, 38.4 µM; with DU-145 prostate it was over 100 µM; in the test on MDA-MB-231 breast, over 100000 nM; in the test with UACC-62 melanoma it was over 100 µM; with ACHN renal it was over 100 µM. Further, the results for the TGI in the test on SK-MEL-5 melanoma, in the test on A549 NSCLC and in the test on OVCAR-3 ovarian were 84.1 µM, over 100 µM and over 100 µM, respectively.

For the compound `O=C(NCCCCCCNC(=O)OCCSCCn1cc(C(=O)NC(=O)OCc2ccccc2)c(=O)[nH]c1=O)OCCSCCn1cc(C(=O)NC(=O)OCc2ccccc2)c(=O)[nH]c1=O`, the TGI in the test on NCI-H522 lung, with UACC-62 melanoma, in the test with ACHN renal, in the test with SK-MEL-5 melanoma, in the test with NCI-H226 lung and with A549 NSCLC was over 100 µM each time. In addition, the TGI with OVCAR-3 ovarian is over 100 µM.

In the case of `Cc1[nH]c(=O)n2c(C)nnc2c1C(=O)Nc1cc(Cl)cc(Cl)c1`, the TGI in the test on NCI-H522 lung was 28.2 µM; in the test on UACC-62 melanoma, 41 µM; in the test with ACHN renal, over 100 µM; in the test on SK-MEL-5 melanoma, 31 µM; with NCI-H226 lung, 68.5 µM; with A549 NSCLC, over 100 µM. The compound further displayed a TGI with OVCAR-3 ovarian of 40.8 µM.

Regarding `O=C(O)CNS(=O)(=O)c1ccc(NC(=O)CI)cc1`, the TGI in the test on NCI-H522 lung is 4.4 µM; in the test on UACC-62 melanoma it was 66.8 µM; with ACHN renal, over 100 µM; in the test on SK-MEL-5 melanoma, 63 µM; with NCI-H226 lung, over 100 µM; with A549 NSCLC it was over 100 µM. This compound had a TGI in the test on OVCAR-3 ovarian of 62 µM.

On to `C/C=C1/CCC2c3[nH]c4ccccc4c3CCN2C1` (configuration not stated), for which the TGI in the test on NCI-H522 lung, with UACC-62 melanoma, in the test on ACHN renal, in the test with SK-MEL-5 melanoma, with NCI-H226 lung and in the test with A549 NSCLC was over 100 µM each time. Besides, the TGI with OVCAR-3 ovarian was over 100 µM.

`CCC[CH2][Sn]([CH2]CCC)([CH2]CCC)[O]C(=O)c1ccc(Cl)cc1Cl`: the GI50 in the test on T-47D breast was 0.138 µM; with NCI-H522 lung, 78.4 nM; in the test on DU-145 prostate, 128 nM; in the test with MDA-MB-231 breast it was 129 nM; in the test on UACC-62 melanoma, 0.161 µM; with ACHN renal, 0.171 µM. The GI50 was 0.143 µM in the test on SK-MEL-5 melanoma, 164 nM with A549 NSCLC and 130 nM in the test with OVCAR-3 ovarian. The TGI in the test on T-47D breast stood at 0.289 µM; in the test with NCI-H522 lung it was 0.251 µM; in the test on DU-145 prostate, 0.257 µM; in the test on MDA-MB-231 breast it was 326 nM; in the test with UACC-62 melanoma it was 0.368 µM; in the test with ACHN renal it was 0.34 µM. Further, the TGI came out at 0.276 µM with SK-MEL-5 melanoma, 0.328 µM in the test on A549 NSCLC and 0.259 µM in the test on OVCAR-3 ovarian.

Turning to `CNC(=O)CC1NC(=O)c2csc(n2)-c2ccc(-c3nc(C4=NC(C(=O)N5CCCC5C(N)=O)CO4)cs3)nc2-c2csc(n2)-c2csc(n2)C(C(C)C)NC(=O)CNC(=O)c2csc(n2)C(C(C)C)NC(=O)c2nc1sc2C` (configuration not stated), the GI50 was over 25 µM in the test with T-47D breast; over 25000 nM in the test on DU-145 prostate; over 25000 nM in the test on MDA-MB-231 breast; over 25 µM in the test on UACC-62 melanoma; over 25 µM in the test on ACHN renal; over 25 µM in the test with SK-MEL-5 melanoma. The GI50 in the test with NCI-H226 lung is over 25 µM; with A549 NSCLC it was over 25000 nM. Moreover, the TGI was over 25 µM in the test with T-47D breast; over 25 µM in the test with DU-145 prostate; 2730 nM and > 25000 nM with MDA-MB-231 breast; over 25 µM with UACC-62 melanoma; over 25 µM in the test on ACHN renal; over 25 µM in the test with SK-MEL-5 melanoma. Further, the TGI was over 25 µM in the test with NCI-H226 lung, over 25 µM in the test with A549 NSCLC and 0.937 µM in the test with OVCAR-3 ovarian.

Turning to `O=[N+]([O-])c1cc(C2SCc3nc4ccccc4n32)ccc1Cl` (configuration not stated), the TGI is 77.1 µM with NCI-H522 lung; 52.6 µM in the test with UACC-62 melanoma; over 100 µM in the test with ACHN renal; 28.3 µM in the test on SK-MEL-5 melanoma; 61.8 µM with NCI-H226 lung; over 100 µM with A549 NSCLC. Besides, the TGI in the test on OVCAR-3 ovarian is 67.6 µM.

In the case of `O=C1C2C=CC(C2)C(c2ccc(O)cc2)N1O` (configuration not stated), the TGI in the test on NCI-H522 lung, with UACC-62 melanoma, in the test on ACHN renal, in the test on SK-MEL-5 melanoma, in the test with NCI-H226 lung and with A549 NSCLC was over 100 µM throughout. Besides, the TGI with OVCAR-3 ovarian is over 100 µM.

`Cc1ccc([N+](=O)[O-])cc1NC(=O)c1cccc([N+](=O)[O-])c1O`: the TGI was 26.6 µM in the test with NCI-H522 lung; 38.1 µM with UACC-62 melanoma; 95.9 µM in the test on ACHN renal; 28.7 µM in the test on SK-MEL-5 melanoma; 51.9 µM in the test on NCI-H226 lung; over 100 µM with A549 NSCLC. The TGI with OVCAR-3 ovarian was determined as 64.6 µM.
